Structures can show the parent of a compound that is named as a salt. Where two headings read alike, the source gives them in different places.
What was measured:
[1] = tested on: IL-1β cytokine output from THP-1s; test: THP-1 AlphaLISA IL-1β cytokine assay; type: cell-based, human; settings: Homo sapiens, read-out: IL-1β (IC50)
Procedure, shortened: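 AlphaLISA read-out of cytokine released into supernatants of differentiated THP-1 cells. Cells were PMA-treated for 72 h, exposed to compound for 30 min, stimulated with LPS for 24 h, then given nigericin for 1 h before harvest. IC50 values come from normalised concentration-response curves.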

NRF2 = NRF2 +/-GSH activation assay (DiscoverX PathHunter NRF2 translocation kit, U2OS cells); type: cell-based; settings: Homo sapiens
Procedure, shortened: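 Percent activation, normalised to dimethyl fumarate (high) and vehicle (low) controls, was fitted for EC50 after 6 hours treatment of U2OS PathHunter cells. In the +GSH arm compounds were first pre-incubated 30 minutes in 6 mM working GSH; NRF2 translocation read by chemiluminescent complementation.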

[2] = Mouse pharmacokinetic study, oral administration; type: in vivo; settings: male, C57BL/6, mouse, plasma, po, 100 mg/kg, plasma, male C57BL/6 mice, oral gavage 100 mg/kg; for concentration at 0.25 h: read-out: Parent compound concentrations following oral administration, Time 0.25 h; for concentration at 0.5 h: read-out: Parent compound concentrations following oral administration, Time 0.5 h; for concentration at 1 h: read-out: Parent compound concentrations following oral administration, Time 1 h; for concentration at 2 h: read-out: Parent compound concentrations following oral administration, Time 2 h; for concentration at 4 h: read-out: Parent compound concentrations following oral administration, Time 4 h; for concentration at 8 h: read-out: Parent compound concentrations following oral administration, Time 8 h; for concentration at 24 h: read-out: Parent compound concentrations following oral administration, Time 24 h; for concentration at 0.083 h: read-out: Parent compound concentrations following oral administration, Time 0.083 h; for concentration at 6 h: read-out: Parent compound concentrations following oral administration, Time 6 h
Method: Pharmacokinetic studies were carried out in 6-8-week-old male C57BL/6 mice having free access to food and water. Intravenous dosing was conducted at 10 mg/kg (5 mL/kg; vehicle: 10% DMSO-90% (25% HP-13-CD in water)) via tail vein injection, with sampling at 3 min, 8 min, 15 min, 30 min, 1, 2, 4, 6 and 8 hours, i.e., 9 time points in total (N=3/time point), using semi-serial bleeding for plasma. Oral compound administration, via gavage, was carried out at 100 mg/kg (10 mL/kg; vehicle: 5% DMSO-95% (0.5% HPMC+0.1% Tween 80 in water)), with sampling at 5 min, 15 min, 30 min, 1, 2, 4, 6, 8 and 24 hours, i.e., 9 time points in total (N=3/time point), using semi-serial bleeding for plasma.
For both intravenous and oral routes, the mice were restrained manually at the designated time points, with ca. 110 μL of blood being taken into K2EDTA tubes via the facial vein. Blood samples were put on ice and centrifuged to obtain plasma samples from which the concentration at each time point was measured by LC-MS/MS.

[3] = THP-1, PMA-differentiated THP-1 cells, LPS 24 hr then Nigericin 1 hour
[4] = U2OS, normalised to dimethyl fumarate 'High' control, GSH condition not stated in Table 5, read-out: NRF2 activation Emax
[5] = U2OS PathHunter cells, 6 hours, GSH condition not stated in Table 5, read-out: NRF2 activation EC50

Row | SMILES | IC50 [1, 3] | EC50 (NRF2; [5]) | concentration at 0.25 h [2] | concentration at 0.5 h [2] | concentration at 1 h [2] | concentration at 2 h [2] | concentration at 4 h [2] | concentration at 8 h [2] | concentration at 24 h [2] | concentration at 0.083 h [2] | concentration at 6 h [2] | IC50 ([1]; THP-1, Table 10, assay of Biological Example 1 (THP-1)) | EC50 (NRF2; U2OS, Table 10, assay of Biological Example 5 (NRF2), read-out: EC50) | Emax (NRF2; [4]) | Emax (NRF2; U2OS, Table 10, assay of Biological Example 5 (NRF2), read-out: Emax)
1 | C=C(CC(=O)OCCCCCCCC)C(=O)OCCC#N [Example 1, 1-(2-cyanoethyl) 4-octyl 2-methylenesuccinate] | 9.3 µM | 8.8 µM |  |  |  |  |  |  |  |  |  |  |  | 134% | 
2 | C=C(CC(=O)OCCCCCCCC)C(=O)OCC(=O)O [Example 49, 2-((2-methylene-4-(octyloxy)-4-oxobutanoyl)oxy)acetic acid] | 7.2 µM | 15.8 µM | 536 ng/mL | 843 ng/mL | 344 ng/mL | 111 ng/mL | 12 ng/mL | 4.5 ng/mL | < 1.5 ng/mL |  |  |  |  | 232% | 
3 | C=C(CC(=O)OC1C(C)(C)CC1(C)C)C(=O)OCC(=O)O [Example 169, 2-((2-methylene-4-oxo-4-(2,2,4,4-tetramethylcyclobutoxy)butanoyl)oxy) acetic acid] | 15.6 µM |  | 9880 ng/mL | 4600 ng/mL | 1750 ng/mL | 971 ng/mL | 215 ng/mL | 7.7 ng/mL | < 0.8 ng/mL | 37800 ng/mL | 57 ng/mL |  |  |  | 
4 | C=C(CC(=O)OC(C)(C)CCCCC)C(=O)OCC(=O)O [Example 193, 2-((2-methylene-4-((2-methylheptan-2-yl)oxy)-4-oxobutanoyl)oxy)acetic acid] | 17.6 µM |  | 45600 ng/mL | 31500 ng/mL | 8930 ng/mL | 2120 ng/mL | 920 ng/mL | 19 ng/mL | 5.6 ng/mL | 52900 ng/mL | 55 ng/mL |  |  |  | 

Continued by falling IC50 [1, 3], values first:

Row | IC50 [1, 3] | EC50 (NRF2; [5]) | concentration at 0.25 h [2] | concentration at 0.5 h [2] | concentration at 1 h [2] | concentration at 2 h [2] | concentration at 4 h [2] | concentration at 8 h [2] | concentration at 24 h [2] | concentration at 0.083 h [2] | concentration at 6 h [2] | IC50 ([1]; THP-1, Table 10, assay of Biological Example 1 (THP-1)) | EC50 (NRF2; U2OS, Table 10, assay of Biological Example 5 (NRF2), read-out: EC50) | SMILES | Emax (NRF2; [4]) | Emax (NRF2; U2OS, Table 10, assay of Biological Example 5 (NRF2), read-out: Emax)
5 | 15.6 µM |  |  |  |  |  |  |  |  |  |  |  |  | C=C(CC(=O)OCCCCCCCC)C(=O)OCCC(F)(F)F [Example 3, 4-octyl 1-(3,3,3-trifluoropropyl) 2-methylenesuccinate] |  | 
6 | 14.7 µM |  | 38400 ng/mL | 40600 ng/mL | 10100 ng/mL | 4420 ng/mL | 4400 ng/mL | 25 ng/mL | 8.1 ng/mL | 55000 ng/mL | 441 ng/mL |  |  | C=C(CC(=O)O[C@@H](CC)CCCCC)C(=O)OCC(=O)O [Example 170, (S)-2-(2-methylene-4-(octan-3-yloxy)-4-oxobutanoyloxy)acetic acid] |  | 
7 | 14.4 µM | 5.6 µM |  |  |  |  |  |  |  |  |  | 14.4 µM | 5.6 µM | COC(=O)/C=C/C(=O)OC [dimethyl fumarate, reference compound] | 102% | 102%
8 | 9.6 µM | 21.5 µM | 850 ng/mL | 1150 ng/mL | 715 ng/mL | 173 ng/mL | 67 ng/mL | < 1.5 ng/mL | < 1.5 ng/mL |  |  |  |  | C=C(CC(=O)OCCCCCCCC)C(=O)OCCC(=O)O [Example 80, 3-((2-methylene-4-(octyloxy)-4-oxobutanoyl)oxy)propanoic Acid] | 229% | 
9 | 9.3 µM | 8.3 µM |  |  |  |  |  |  |  |  |  |  |  | C=C(CC(=O)OCCCCCCCC)C(=O)OC1COC1 [Example 4, 4-octyl 1-(oxetan-3-yl) 2-methylenesuccinate] | 181% | 
10 | 5 µM | 5.1 µM |  |  |  |  |  |  |  |  |  |  |  | C=C(CC(=O)OCCCCCCCC)C(=O)OCCS(C)(=O)=O [Example 2, 1-(2-(methylsulfonyl)ethyl) 4-octyl 2-methylenesuccinate] | 268% | 
11 | 4.7 µM |  |  |  |  |  |  |  |  |  |  |  |  | C=C(CC(=O)OCCCCCCCC)C(=O)OCCN1C(=O)CCC1=O [Example 9, 1-(2-(2,5-dioxopyrrolidin-1-yl)ethyl) 4-octyl 2-methylenesuccinate] |  | 

Reference: US12390437B2, “Itaconic acid derivatives and uses thereof intreating an inflammatory disease or a disease associated with an undesirable immune response” (Sitryx Therapeutics Limited, priority 2019, dated 2025)
